Measured values from publication PMC8949600, “In Vitro & In Vivo Studies on Identifying and Designing Temporin-1CEh from the Skin Secretion of Rana chensinensis as the Optimised Antibacterial Prototype Drug” (Pharmaceutics, 2022).
Read-outs that look alike come from different tables or passages of the source. Ends that are not written are not given here.

Key:
[1] = 50% TFE environment ref 44; cited from earlier work
Excerpt: As the same situation found in the study of Temporin B KKG6A [31], T1CEh-KK experienced an improvement in antimicrobial activity, especially for the inhibition of the growth of E. coli. In addition, the substitution by proline leads to the weakening of the antimicrobial ability of T1CEh-KKP except for against S. aureus.

[2] = system: E. faecalis (NCTC 12697); format: cell-based
Experimental: (§1) A measure of 5 × 10^5 CFU/mL of bacterial suspension including 2-fold dilution peptides (ranging from 1 µM to 512 µM) was incubated in 96-well plates for 16–20 h at 37 °C. For the positive and negative control, 200 mg/L of final concentration of norfloxacin and 1% DMSO were applied, respectively. […] Subsequently, 10 µL of the solution in each clear well was dropped on a Mueller–Hinton agar (MHA) plate and incubated at 37 °C for 16–20 h. The lowest concentration without colony growth was considered as the MBCs.
(§2) Mueller–Hinton broth (MHB) at pH 6.0 and 8.0 as well as MHB containing 10% of Fetal Bovine Serum (FBS), 150 mM of NaCl, 1 mM of MgCl2 and 4 µM of FeCl3, respectively, were prepared. In particular, the pathogens were diluted by the preprepared mediums to a final concentration of 5 × 10^5 CFU/mL after growing to the logarithmic phase, and other operations followed the MIC assay.

[3] = system: E. coli (ATCC 8739); format: cell-based
Experimental: as §1, §2

[4] = system: S. aureus (ATCC CRM 6538); format: cell-based
Experimental: as §1, §2

[5] = system: K. pneumoniae (ATCC 43816); format: cell-based
Experimental: as §1, §2

[6] = system: P. aeruginosa (ATCC 27853); format: cell-based
Experimental: as §1, §2

[7] = system: MRSA (NCTC 12493); format: cell-based
Experimental: as §1, §2

[8] = system: erythrocytes from defibrinated horse blood; assay: Haemolysis assay; conditions: for haemolytic activity (in words): compared with the preceding peptide of the design series
Excerpt: (§4) The erythrocytes from defibrinated horse blood (TCS Biosciences Ltd., Buckingham, UK) were used to perform the haemolysis assay, as described previously [27]. Equal volumes of PBS and 2% (v/v) of the non-ionic detergent, Triton X-100 (Sigma–Aldrich, St. Louis, MO, USA) in PBS solution, were used as negative and positive controls, respectively. HC50 was defined as the mean peptide concentration producing 50% haemolysis.

[9] = system: S. aureus (ATCC CRM 6538) biofilm; format: cell-based
Experimental: (§3) The anti-biofilm activities were tested on S. aureus and E. coli, as indicated previously. For the positive and negative control, 20 mg/mL of vancomycin and 1% DMSO were applied, respectively, in both assays. In addition, 0.1% Crystal Violet was used as the biofilm colouring agent.

[10] = system: erythrocytes from defibrinated horse blood; conditions: 256 µM
Excerpt: as §4

[11] = system: E. coli (ATCC 8739) biofilm; format: cell-based
Experimental: as §3

Row | Substance | MBC ([2]; NCTC 12697) | MIC ([2]; NCTC 12697) | MBC ([3]; ATCC 8739) | MIC ([3]; ATCC 8739) | MBC ([4]; ATCC CRM 6538) | MIC ([4]; ATCC CRM 6538) | MBC ([5]; ATCC 43816) | MIC ([5]; ATCC 43816) | MBC ([6]; ATCC 27853) | MIC ([6]; ATCC 27853) | MBC ([7]; NCTC 12493) | MIC ([7]; NCTC 12493) | haemolytic activity (in words) ([8]; horse erythrocytes) | MBEC [9] | MIC ([2]; NCTC 12697, pH 6) | MIC ([2]; NCTC 12697, pH 7) | MIC ([2]; NCTC 12697, pH 8) | MIC ([3]; ATCC 8739, pH 6) | MIC ([3]; ATCC 8739, pH 7) | MIC ([3]; ATCC 8739, pH 8) | other results
1 | Buforin II | – | – | – | – | – | – | – | – | – | – | – | – | – | – | – | – | – | – | – | – | helicity percent [1]: 43%
2 | FVDLKKIANII-NH2 [Peptide T1CEa-t] | > 512 µM | > 512 µM | > 512 µM | > 512 µM | > 512 µM | > 512 µM | > 512 µM | > 512 µM | > 512 µM | > 512 µM | > 512 µM | > 512 µM | completely lost | – | – | – | – | – | – | – | –
3 | FVDLKKIANIL-NH2 [Peptide T1CEh-t] | > 512 µM | > 512 µM | > 512 µM | > 512 µM | > 512 µM | > 512 µM | > 512 µM | > 512 µM | > 512 µM | > 512 µM | > 512 µM | > 512 µM | completely lost | – | – | – | – | – | – | – | –
4 | FVDLKKIANILNSIF-NH2 [Temporin-1CEh] | 32 µM | 32 µM | – | 128/128 μM | 16 µM | 8 µM | 256 µM | 256 µM | 256 µM | 128 µM | 16 µM | 16 µM | – | > 256 µM | >512 µM | 32 µM | >512 µM | >512 µM | 128 µM | >512 µM | MBIC [9]: 64 µM; haemolysis rate [10]: 92.3%; MIC ([4]; ATCC CRM 6538, pH 6): 128 µM; MIC ([4]; ATCC CRM 6538, pH 7): 8 µM; MIC ([4]; ATCC CRM 6538, pH 8): 128 µM; MIC ([5]; ATCC 43816, pH 6): >512 µM; MIC ([5]; ATCC 43816, pH 7): 256 µM; MIC ([5]; ATCC 43816, pH 8): >512 µM; MIC ([6]; ATCC 27853, pH 6): >512 µM; MIC ([6]; ATCC 27853, pH 7): 128 µM; MIC ([6]; ATCC 27853, pH 8): >512 µM; MIC ([7]; NCTC 12493, pH 6): 256 µM; MIC ([7]; NCTC 12493, pH 7): 16 µM; MIC ([7]; NCTC 12493, pH 8): 256 µM; HC50 ([8]; mean peptide concentration producing 50% haemolysis, horse erythrocytes): 152.6 µM
5 | KKFVDLKKIANIL-NH2 [Peptide T1CEh-KK] | > 512 µM | 64 µM | 16 µM | 8 µM | > 512 µM | 256 µM | 128 µM | 128 µM | 256 µM | 256 µM | > 512 µM | > 512 µM | maintained the low level of haemolysis | – | – | – | – | – | – | – | –
6 | KKFVPLKKIANIL-NH2 [Peptide T1CEh-KKP] | > 512 µM | > 512 µM | 128 µM | 128 µM | 64 µM | 32 µM | > 512 µM | > 512 µM | > 512 µM | 512 µM | 256 µM | 256 µM | – | – | – | – | – | – | – | – | –
7 | KKWVPLKKIANIL-NH2 [Peptide T1CEh-KKPW] | > 512 µM | > 512 µM | 16 µM | 8 µM | 16 µM | 8 µM | 16 µM | 16 µM | 64 µM | 32 µM | 64 µM | 16 µM | – | > 256 µM | >512 µM | >512 µM | 256 µM | 16 µM | 8 µM | 8 µM | MBIC [9]: 16 µM; MBEC [11]: > 256 µM; MBIC [11]: 16 µM; MIC ([4]; ATCC CRM 6538, pH 6): >512 µM; MIC ([4]; ATCC CRM 6538, pH 7): 8 µM; MIC ([4]; ATCC CRM 6538, pH 8): 32 µM; MIC ([5]; ATCC 43816, pH 6): 256 µM; MIC ([5]; ATCC 43816, pH 7): 16 µM; MIC ([5]; ATCC 43816, pH 8): 128 µM; MIC ([6]; ATCC 27853, pH 6): 64 µM; MIC ([6]; ATCC 27853, pH 7): 32 µM; MIC ([6]; ATCC 27853, pH 8): 32 µM; MIC ([7]; NCTC 12493, pH 6): >512 µM; MIC ([7]; NCTC 12493, pH 7): 16 µM; MIC ([7]; NCTC 12493, pH 8): 128 µM; haemolysis rate ([8]; at 256 μM, horse erythrocytes): lower than 10%
8 | KKWVPWKKIANIL-NH2 [Peptide T1CEh-KKPWW] | 128 µM | 128 µM | 4 µM | 4 µM | 4 µM | 4 µM | 4 µM | 4 µM | 16 µM | 16 µM | 256 µM | 32 µM | – | > 256 µM | >512 µM | 128 µM | 64 µM | 4 µM | 4 µM | 4 µM | MBEC [11]: > 256 µM; MIC ([4]; ATCC CRM 6538, pH 6): 32 µM; MIC ([4]; ATCC CRM 6538, pH 7): 4 µM; MIC ([4]; ATCC CRM 6538, pH 8): 4 µM; MIC ([5]; ATCC 43816, pH 6): 32 µM; MIC ([5]; ATCC 43816, pH 7): 4 µM; MIC ([5]; ATCC 43816, pH 8): 8 µM; MIC ([6]; ATCC 27853, pH 6): 16 µM; MIC ([6]; ATCC 27853, pH 7): 16 µM; MIC ([6]; ATCC 27853, pH 8): 4 µM; MIC ([7]; NCTC 12493, pH 6): 256 µM; MIC ([7]; NCTC 12493, pH 7): 32 µM; MIC ([7]; NCTC 12493, pH 8): 32 µM; haemolysis rates ([8]; concentration not stated at the place (gradient of Figure 4)): lower than 6%
